Measured values published in patent publication US10765621B2, “Extracts of halimione portulacoides and their application” (Cutech Srl, priority 2013, dated 2020).

Legend:
IL-1α = IL-1α release by ex-vivo human skin stimulated with 2% SDS (ELISA); type: cell-based
Method: In order to study the biological activity of the extracts from Halimione on the inflammatory response of skin to irritation, the experimental protocol summarized below was adopted: Ex-vivo skin samples (7 mm in diameter) were cultivated for 24 hours in 6-well plates (4 skin samples/well) with 2.5 ml/well of modified Williams E medium.
After 24 hours of culture the culture medium was renewed and the skin samples 2 to 6 received the irritant stimulus (2% SDS) through topical application of 4 μl of preparation on each skin sample. After 3 hours the stimulus was removed by means of cotton buds and then 4 μl of extract or dexamethasone were topically administered to the groups 3 to 6. Stimulus and lenitive treatments were diluted in 50% DMSO.
After a further 24 hours of cultivation, the culture media were separately collected from each group and the released IL-1α quantified via ELISA (BioLegend ELISAMAX cat. n. 434905).
Table 14 reports the average values of IL-1α obtained from the two medium samples (4 skin samples/well) collected for each experimental group.

hair follicles = conditions: usual response, indicative; cited from earlier work

## C[C@@H]1C[C@H]2[C@@H]3CCC4=CC(=O)C=C[C@]4(C)[C@@]3(F)[C@@H](O)C[C@]2(C)[C@@]1(O)C(=O)CO [Dexam., dexamethasone]
IL-1α; 2% SDS stimulus, then lenitive treatment 10 mM (positive control), 24 h
  IL-1α released in culture medium: 9.9 pg/mL

## CCCCCCCCCCCCOS(=O)(=O)[O-].[Na+] [SDS]
IL-1α; 2% SDS stimulus without lenitive treatment (negative control), unstimulated control 1.3
  IL-1α released in culture medium: 14.8 pg/mL

## insulin
Hair follicles
  Hair follicle growth increment produced by well-known stimulants / positive controls: 10%
